Source: patent US10500166B2, “Methods for the treatment of erectile dysfunction using fispemifene” (QUATRX PHARMACEUTICALS, priority 2007, dated 2019)

Key:
LH = test: Phase I repeated dose study 101-50202: serum LH; format: in vivo, human
Description: Fispemifene has been studied in two phase I studies in humans—in a single dose and a repeated dose study. Effect of fispemifene on hormone levels was one main focus of the repeated dose study. The phase I repeated dose study (number 101-50202) was a randomized, double-blind, placebo-controlled 28-day dose-escalation study performed in 31 healthy, elderly men, aged 50-68 years. The main objective of the study was to investigate the tolerability, safety and pharmacokinetics of fispemifene after repeated oral doses, but the study focused also on the effects of fispemifene on serum free and total testosterone, estradiol, and other relevant hormones. The fispemifene doses 10, 30, 100 and 300 mg per day and placebo were administered once every morning as capsules containing 10 mg or 100 mg of fispemifene, or placebo.
The variables for safety and tolerability were adverse events, vital signs, 12-lead ECG, clinical laboratory evaluations, physical examination, ultrasound examinations (mammary glands) and inhibin B. For pharmacokinetics, the concentrations of fispemifene and its metabolite(s) were to be evaluated. For pharmacodynamics, serum concentrations of FSH, LH, estradiol, testosterone, SHBG, prolactin, aldosterone, cortisol and TSH before and during treatment were measured and compared with the concentrations in the placebo-group.

[1] = tested on: calculated free testosterone; test: Example 3 study in hypogonadal men: calculated serum free testosterone (ITT); format: in vivo, human
Method: FIG. 7 depicts a graph of the data of the study from Example 3 showing the calculated serum free testosterone level (ng/dL) over time for each of the treatment groups. The bars from left to right for each of the BL (baseline), 2 week, 4 week, and 6 week timepoints (the 6 week timepoint occurred 2 weeks after the discontinuation of study drug at week 4) correspond to the placebo, 100 mg, 200 mg, and 300 mg/day doses, respectively;
A randomized, double-blind, placebo controlled, parallel-group study of once-daily doses of fispemifene (100, 200, and 300 mg/day) given for 4 weeks was conducted in a population of hypogonadal men. Subjects were required to meet all of the following inclusion criteria at screening and prior to randomization to be eligible for the study:
There were 77 subjects total. The number of subjects randomized to the 100 mg fispemifene, 200 mg fispemifene, 300 mg fispemifene, and placebo arms were 21, 21, 19, and 16, respectively.
Subjects were randomly assigned to one of four treatment groups in a 1:1:1:1 ratio: • Treatment A (100 mg): fispemifene 100 mg+placebo+placebo; • Treatment B (200 mg): fispemifene 100 mg+fispemifene 100 mg+placebo; • Treatment C (300 mg): fispemifene 100 mg+fispemifene 100 mg+fispemifene 100 mg; and • Treatment D (Placebo): placebo+placebo+placebo.
Subjects took one dose (three capsules) of study medication once a day at home for 4 weeks. Capsules were to be taken in the morning immediately after breakfast, with the exception of the morning of the Week 4 visit. Capsules were not to be taken on the morning of the Week 4 visit because trough plasma levels of fispemifene were determined by a blood sample taken at this visit. Each subject was randomly assigned to treatment with one of the 3 different dose regimens of fispemifene or placebo vehicle. Each subject received a 4 week supply of study drug.
Blood samples were taken from the subjects within 1 week prior to dosing with study drug to establish baseline values; after 2 and 4 weeks of randomization; and 2 weeks after the last dose of study drug. Serum was prepared from those samples and used to determine the mean % change from baseline in total testosterone, free testosterone, SHBG (sex hormone-binding globulin), DHT (dihydrotestosterone), E2 (estradiol), LH (luteinizing hormone), FSH (follicle stimulating hormone), and inhibin B.
1. Percent change from baseline in free testosterone and calculated free testosterone at Weeks 2, 4, and 6;

[2] = 100 mg/day, Week 6 (2 weeks after discontinuation)
[3] = 100 mg/day, to Week 6 (2 weeks after discontinuation)
[4] = 200 mg/day, Week 6 (2 weeks after discontinuation)
[5] = 200 mg/day, to Week 6 (2 weeks after discontinuation)
[6] = 300 mg/day, Week 6 (2 weeks after discontinuation)
[7] = 300 mg/day, to Week 6 (2 weeks after discontinuation)

OCCOCCOc1ccc(/C(=C(/CCCl)c2ccccc2)c2ccccc2)cc1 [Fispemifene, (Z)-2-{2-[4-(4-Chloro-1,2-diphenylbut-1-enyl)phenoxy]ethoxy}ethanol]
Serum LH, Mean (LH; 10 mg/day, Baseline): 3.47 U/L | Serum LH, Mean (LH; 10 mg/day, Day 8): 3.12 U/L | Serum LH, Mean (LH; 10 mg/day, Day 15): 2.87 U/L | Serum LH, Mean (LH; 10 mg/day, Day 22): 3.56 U/L | Serum LH, Mean (LH; 10 mg/day, Day 28): 3.02 U/L | Serum LH, Mean (LH; 30 mg/day, Baseline): 3.58 U/L | Serum LH, Mean (LH; 30 mg/day, Day 8): 4.26 U/L | Serum LH, Mean (LH; 30 mg/day, Day 15): 5.02 U/L | Serum LH, Mean (LH; 30 mg/day, Day 22): 4.32 U/L | Serum LH, Mean (LH; 30 mg/day, Day 28): 4.42 U/L | Serum LH, Mean (LH; 100 mg/day, Baseline): 4.12 U/L | Serum LH, Mean (LH; 100 mg/day, Day 8): 5.52 U/L | Serum LH, Mean (LH; 100 mg/day, Day 15): 6.82 U/L | Serum LH, Mean (LH; 100 mg/day, Day 22): 7.18 U/L | Serum LH, Mean (LH; 100 mg/day, Day 28): 7.60 U/L | Serum LH, Mean (LH; 300 mg/day, Baseline): 4.58 U/L | Serum LH, Mean (LH; 300 mg/day, Day 8): 6.80 U/L | Serum LH, Mean (LH; 300 mg/day, Day 15): 6.75 U/L | Serum LH, Mean (LH; 300 mg/day, Day 22): 7.77 U/L | Serum LH, Mean (LH; 300 mg/day, Day 28): 6.70 U/L | effect on serum concentration of LH (LH; during the 28 days of treatment): increased | Calculated Free Testosterone, Max ([1]; 100 mg/day, Baseline (Visit 2)): 7.54 ng/dL | Calculated Free Testosterone, Mean ± SD ([1]; 100 mg/day, Baseline (Visit 2)): 4.81 ± 1.368 ng/dL | Calculated Free Testosterone, Median ([1]; 100 mg/day, Baseline (Visit 2)): 4.95 ng/dL | Calculated Free Testosterone, Min ([1]; 100 mg/day, Baseline (Visit 2)): 2.19 ng/dL | Calculated Free Testosterone, Max ([1]; 100 mg/day, Week 2): 10.27 ng/dL | Calculated Free Testosterone, Mean ± SD ([1]; 100 mg/day, Week 2): 6.64 ± 1.732 ng/dL | Calculated Free Testosterone, Median ([1]; 100 mg/day, Week 2): 6.46 ng/dL | Calculated Free Testosterone, Min ([1]; 100 mg/day, Week 2): 4.32 ng/dL | Calculated Free Testosterone, Max ([1]; 100 mg/day, Week 4): 9.13 ng/dL | Calculated Free Testosterone, Mean ± SD ([1]; 100 mg/day, Week 4): 6.59 ± 1.396 ng/dL | Calculated Free Testosterone, Median ([1]; 100 mg/day, Week 4): 6.63 ng/dL | Calculated Free Testosterone, Min ([1]; 100 mg/day, Week 4): 4.15 ng/dL | Calculated Free Testosterone, Max [1, 2]: 7.05 ng/dL | Calculated Free Testosterone, Mean ± SD [1, 2]: 5.15 ± 1.057 ng/dL | Calculated Free Testosterone, Median [1, 2]: 5.10 ng/dL | Calculated Free Testosterone, Min [1, 2]: 2.57 ng/dL | Calculated Free Testosterone, % Change from Baseline, Max ([1]; 100 mg/day, to Week 2): 100% | Calculated Free Testosterone, % Change from Baseline, Median ([1]; 100 mg/day, to Week 2): 36% | Calculated Free Testosterone, % Change from Baseline, Min ([1]; 100 mg/day, to Week 2): 8% | Calculated Free Testosterone, % Change from Baseline, Max ([1]; 100 mg/day, to Week 4): 157% | Calculated Free Testosterone, % Change from Baseline, Median ([1]; 100 mg/day, to Week 4): 36% | Calculated Free Testosterone, % Change from Baseline, Max [1, 3]: 115% | Calculated Free Testosterone, % Change from Baseline, Median [1, 3]: 8% | Calculated Free Testosterone, Max ([1]; 200 mg/day, Baseline (Visit 2)): 7.29 ng/dL | Calculated Free Testosterone, Mean ± SD ([1]; 200 mg/day, Baseline (Visit 2)): 4.80 ± 1.143 ng/dL | Calculated Free Testosterone, Median ([1]; 200 mg/day, Baseline (Visit 2)): 4.70 ng/dL | Calculated Free Testosterone, Min ([1]; 200 mg/day, Baseline (Visit 2)): 2.66 ng/dL | Calculated Free Testosterone, Max ([1]; 200 mg/day, Week 2): 8.98 ng/dL | Calculated Free Testosterone, Mean ± SD ([1]; 200 mg/day, Week 2): 6.37 ± 1.386 ng/dL | Calculated Free Testosterone, Median ([1]; 200 mg/day, Week 2): 6.21 ng/dL | Calculated Free Testosterone, Min ([1]; 200 mg/day, Week 2): 4.11 ng/dL | Calculated Free Testosterone, Max ([1]; 200 mg/day, Week 4): 9.83 ng/dL | Calculated Free Testosterone, Mean ± SD ([1]; 200 mg/day, Week 4): 6.64 ± 1.658 ng/dL | Calculated Free Testosterone, Median ([1]; 200 mg/day, Week 4): 6.39 ng/dL | Calculated Free Testosterone, Min ([1]; 200 mg/day, Week 4): 4.05 ng/dL | Calculated Free Testosterone, Max [1, 4]: 7.81 ng/dL | Calculated Free Testosterone, Mean ± SD [1, 4]: 5.153 ± 1.328 ng/dL | Calculated Free Testosterone, Median [1, 4]: 4.88 ng/dL | Calculated Free Testosterone, Min [1, 4]: 3.60 ng/dL | Calculated Free Testosterone, % Change from Baseline, Max ([1]; 200 mg/day, to Week 2): 124% | Calculated Free Testosterone, % Change from Baseline, Median ([1]; 200 mg/day, to Week 2): 28% | Calculated Free Testosterone, % Change from Baseline, Min ([1]; 200 mg/day, to Week 2): 1% | Calculated Free Testosterone, % Change from Baseline, Max ([1]; 200 mg/day, to Week 4): 112% | Calculated Free Testosterone, % Change from Baseline, Median ([1]; 200 mg/day, to Week 4): 40% | Calculated Free Testosterone, % Change from Baseline, Max [1, 5]: 75% | Calculated Free Testosterone, % Change from Baseline, Median [1, 5]: 6% | Calculated Free Testosterone, Max ([1]; 300 mg/day, Baseline (Visit 2)): 7.02 ng/dL | Calculated Free Testosterone, Mean ± SD ([1]; 300 mg/day, Baseline (Visit 2)): 4.66 ± 1.509 ng/dL | Calculated Free Testosterone, Median ([1]; 300 mg/day, Baseline (Visit 2)): 4.94 ng/dL | Calculated Free Testosterone, Min ([1]; 300 mg/day, Baseline (Visit 2)): 0.23 ng/dL | Calculated Free Testosterone, Max ([1]; 300 mg/day, Week 2): 9.79 ng/dL | Calculated Free Testosterone, Mean ± SD ([1]; 300 mg/day, Week 2): 6.43 ± 2.152 ng/dL | Calculated Free Testosterone, Median ([1]; 300 mg/day, Week 2): 7.25 ng/dL | Calculated Free Testosterone, Min ([1]; 300 mg/day, Week 2): 0.14 ng/dL | Calculated Free Testosterone, Max ([1]; 300 mg/day, Week 4): 10.31 ng/dL | Calculated Free Testosterone, Mean ± SD ([1]; 300 mg/day, Week 4): 7.33 ± 2.589 ng/dL | Calculated Free Testosterone, Median ([1]; 300 mg/day, Week 4): 8.40 ng/dL | Calculated Free Testosterone, Min ([1]; 300 mg/day, Week 4): 0.10 ng/dL | Calculated Free Testosterone, Max [1, 6]: 8.02 ng/dL | Calculated Free Testosterone, Mean ± SD [1, 6]: 5.29 ± 1.791 ng/dL | Calculated Free Testosterone, Median [1, 6]: 5.44 ng/dL | Calculated Free Testosterone, Min [1, 6]: 0.22 ng/dL | Calculated Free Testosterone, % Change from Baseline, Max ([1]; 300 mg/day, to Week 2): 83% | Calculated Free Testosterone, % Change from Baseline, Median ([1]; 300 mg/day, to Week 2): 40% | Calculated Free Testosterone, % Change from Baseline, Max ([1]; 300 mg/day, to Week 4): 133% | Calculated Free Testosterone, % Change from Baseline, Median ([1]; 300 mg/day, to Week 4): 59% | Calculated Free Testosterone, % Change from Baseline, Max [1, 7]: 65% | Calculated Free Testosterone, % Change from Baseline, Median [1, 7]: 10%
